Test results taken from BindingDB's records for PubMed 35175760 (Shandong University, 2022).

How the values were obtained:
[1] = Inhibition of HIV-1 reverse transcriptase Y181C mutant assessed as reduction in luciferase reporter activity by single-round assay
[2] = Inhibition of wild type HIV-1 reverse transcriptase assessed as reduction in luciferase reporter activity by single-round assay
[3] = Inhibition of HIV-1 reverse transcriptase Y188L mutant assessed as reduction in luciferase reporter activity by single-round assay
[4] = Inhibition of HIV-1 reverse transcriptase K103N mutant assessed as reduction in luciferase reporter activity by single-round assay
[5] = Inhibition of HIV-1 reverse transcriptase E138K mutant assessed as reduction in luciferase reporter activity by single-round assay

| Compound | EC50 [1] | EC50 [2] | EC50 [3] | EC50 [4] | EC50 [5] |
| --- | --- | --- | --- | --- | --- |
| Cc1cc(/C=C/C#N)cc(C)c1Nc1ncc2ncn(-c3ccc(C#N)cc3)c2n1 | 26 nM | 4.5 nM | 91 nM | 6.5 nM | 25 nM |
| Cc1cc(/C=C/C#N)cc(C)c1-n1cnc2cnc(Nc3ccc(C#N)cc3)nc21 | 1.5 nM | 0.2 nM | 9.6 nM | 0.4 nM | 0.7 nM |
| Cc1cc(/C=C/C#N)cc(C)c1Nc1ccnc(Nc2ccc(C#N)cc2)n1 [Rilpivirine] |  | 0.4 nM |  |  |  |
